Source: article PMC7178883, “1,2,4-Triazole-based anticonvulsant agents with additional ROS scavenging activity are effective in a model of pharmacoresistant epilepsy” (Journal of Enzyme Inhibition and Medicinal Chemistry, 2020)
In brackets after ≈: the same amount, converted by molar mass.

Experiments:
DPPH assay = details: methanol, 30 min, 517 nm
Protocol: Free radical scavenging activity of compounds TP-10, TP-315 and TP-427 was evaluated using DPPH assay. Briefly, 25 µl of 0.2 mM of methanolic solution of DPPH ([…]) was mixed with 175 µl of varying concentrations (0.002–4.5 mg/ml) of the studied compounds dissolved in methanol. Reaction mixtures in the 96-well plate were incubated in the dark at room temperature for 30 min. The absorbance was measured at 517 nm against blank (which consists of all reagents without the investigated compounds) using a microplate reader (Epoch, BioTek Instruments, Inc., Winooski, VT, USA). As a reference, the antioxidant activity of vitamin C was evaluated. Each concentration of the compounds was assayed at least six times. The results were expressed as the IC50 (µg/ml) ± SD calculated using the linear regression analysis.

U-87 MG cells [1] = assay: Total ROS activity assay (flow cytometry); assay type: cell-based, human; details: 10 µg/ml, 24 h; for ROS positive cells: control 90.2%
Protocol: Total ROS activity was measured using Intracellular Total ROS Activity Assay Kit (ImmunoChemistry Technologies, Bloomington, MN, USA). After 24 h of incubation of glioblastoma cells U-87 MG (ATCC, Manassas, VA, USA) with the test compounds in concentration 10 µg/ml, the medium was removed, the cells were washed twice with the cold PBS solution and the Assay Buffer (provided by the kit manufacturer) was added. Then, cells (at a density of 1 × 10^6 cells/ml) were treated with 10 µl of Total ROS green reagent and incubated for 1 h at 37 °C in a CO2 incubator. After incubation, the cells were subjected to a rinsing procedure using the Assay Buffer. Cells were suspended in 500 µl of the Assay Buffer and analysed using a flow cytometer (BD FACSCanto II flow cytometer) and FACSDiva software (both from BD Biosciences Systems, San Jose, CA, USA).

[2] = system: human recombinant butyrylcholinesterase (hrBChE); assay: BChE inhibition, Ellman method; assay type: biochemical; details: 500 µM
Protocol: (§1) The inhibition ability of tested compounds against human recombinant acetylcholinesterase (hrAChE) and human recombinant butyrylcholinesterase (hrBChE) was determined by standard Ellman method adapted for 96-well plate. The reaction mixture contained 10 µL of hrAChE (70 ng/mL protein final concentration) or hrBChE (220 ng/mL protein final concentration), 10 µL of tested compound (1, 10, 100, and 500 µM final concentration), 20 µL of 5,5′-dithiobis-2-nitrobenzoic acid (DTNB; 500 µM final concentration), and 60 µL of 20 mM Na-phosphate buffer (pH 7.4). The mixture was pre-incubated at 37 °C for 15 min and subsequently 10 µL substrate acetylthiocholine iodide (ATChI) or butyrylthiochiline iodide (BTChI) was added to the final concentration of 1000 µM[24]. The final volume of reaction mixture was 100 µL. The product formed during the reaction (5-thio-2-nitrobenzoic acid, TNB) was determined by measurement of its absorbance at 436 nm. The catalytic activity was evaluated as amount of product (%) formed by enzyme after 10 min of mixture incubation at 37 °C.

U-87 MG cells [3] = assay: Cell viability, MTT assay; assay type: cell-based, human; details: 10 µg/ml, 24 h
Protocol: Viability of glioblastoma cells U-87 MG (ATCC HTB-14) exposed to a fixed dose of 10 µg/ml of TP-10, TP-315, and TP-427 was measured using MTT assay. Stock solutions of the investigated compounds in DMSO were prepared in the concentration of 50 mg/ml. The cells were cultured at 37 °C in a 5% CO2 atmosphere using Eagle’s Minimum Essential Medium (EMEM) supplemented with 10% foetal bovine serum (FBS), 100 U/ml of penicillin, and […] of streptomycin. Suspension of U-87 MG cells at a density of 1 × 10^5 cells/ml was placed in 96-well plate (100 µl in each well) and incubated for 24 h. On the day of the experiment, the medium was removed from wells and replaced with medium containing a fixed concentration (10 µg/ml) of the respective 1,2,4-triazole derivative. After 24 h of incubation, 15 µl of MTT solution (5 mg/mL in PBS) was added to each well and the microplates were incubated for the next 3 h. Crystals of formazan formed in the metabolically active cells were solubilised with 10% SDS solution (100 µl) during overnight incubation and then the absorbance of dissolved formazan was measured at λ = 570 nm using a microplate reader (Epoch, BioTek Instruments, Inc., Winooski, VT, USA). The viability of cells treated with TP-10, TP-315, or TP-427 was expressed as the % of the viability of control cells (i.e. cells incubated without respective compounds). The experiments were run in triplicate and repeated three times. Sample observations and image capturing were performed using Olympus CKX53 microscope coupled with XM10 digital camera (Olympus).

[4] = system: human recombinant acetylcholinesterase (hrAChE); assay: AChE inhibition, Ellman method; assay type: biochemical; details: 500 µM
Protocol: as §1

CUPRAC assay = details: pH 7.0, 450 nm
Protocol: Cupric reducing antioxidant capacity (CUPRAC) assay was performed according to the method by Apak et al.[20] with slight modifications. The CUPRAC reagent was prepared by mixing equal volume of CuCl2 (10 mM), neocuproine solution (7.5 mM), and acetate buffer (pH = 7.0). Subsequently, 50 µl of TP-10, TP-315, TP-427 (0.002–0.4 mg/ml) and 150 µl of CUPRAC reagent were pipetted into each well of 96-well plate (Nunc, Roskilde, Denmark). After pipetting, the plate was shaken for 5 min and then incubated for 25 min in the dark at room temperature. The absorbance of the solutions was read at 450 nm using a microplate reader (Epoch, BioTek Instruments, Inc., Winooski, VT, USA). At least six tests were performed for each concentration of the investigated compounds. The results were expressed as the IC50 (µg/ml) ± SD.

Compound | IC50 ± SD, DPPH (DPPH assay) [µg/mL] | ROS negative cells (U-87 MG cells [1]) [%] | ROS positive cells (U-87 MG cells [1]) [%] | hrBChE activity [2] [%] | Relative viability vs. untreated cells (U-87 MG cells [3]) [%] | decrease of hrAChE activity [4] [%] | IC50 ± SD, CUPRAC (CUPRAC assay) [µg/mL]
CCCCCCn1c(Cc2cccc(Cl)c2)n[nH]c1=S [TP-427, 5-(3-chlorobenzyl)-4-hexyl-2,4-dihydro-3H-1,2,4-triazole-3-thione] | 110.51 ± 2.12 (≈ 357 µM) | 20.9 | 79.1 | 78 | 98.53 ± 4.18 | ~61 | 30.92 ± 1.11 (≈ 99.8 µM)
Cc1ccc(-n2c(-c3cccc(Cl)c3)n[nH]c2=S)cc1 [TP-10, 5-(3-chlorophenyl)-4-(4-methylphenyl)-2,4-dihydro-3H-1,2,4-triazole-3-thione] | 31.72 ± 1.05 (≈ 105 µM) | 11.5 | 88.5 | 84 | 99.16 ± 3.92 | ~54 | 16.04 ± 0.61 (≈ 53.1 µM)
CCCCCCn1c(-c2cccc(Cl)c2)n[nH]c1=S [TP-315, 5-(3-chlorophenyl)-4-hexyl-2,4-dihydro-3H-1,2,4-triazole-3-thione] | 56.87 ± 0.70 (≈ 192 µM) | 14.1 | 85.9 | 59 | 98.82 ± 2.84 | ~66 | 22.28 ± 1.03 (≈ 75.3 µM)
